From patent publication US20160263073A1, “MONOACYLGLYCEROLS FOR USE IN THE TREATMENT OF MALABSORPTION HAVING A MECHANICAL BASIS” (NESTEC S.A., priority 2013, published 2016)

How the values were obtained:
[1] = lipid maldigestion or malabsorption rat model (XENICAL-induced): EPA level in red blood cell lipids; assay type: in vivo; conditions: rats; for level of EPA incorporated in red blood cells: day 7, with XENICAL (ORLISTAT), FIG. 2
Protocol: The concept was tested in a lipid maldigestion or malabsorption rat model. The maldigestion or malabsorption condition was obtained using XENICAL® (ORLISTAT), a pancreatic and gastric lipases inhibitor (tetrahydrolipstatin; see FIG. 7). Rats were fed during 21 days with long-chain polyunsaturated fatty acid (LC-PUFA) supplements containing mainly eicosapentaenoic (EPA) acid. Fish oil was used as a source of triacylglycerols, and different EPA glycerides were evaluated. XENICAL® (ORLISTAT) was given at a level sufficient to decrease lipid absorption by 40%. A group receiving fish oil without XENICAL® (ORLISTAT) was used as a positive control. At different time intervals (D3, D7, […]), the fatty acid profiles of red blood cell and plasma lipids were determined. At the end of the experiment, the fatty acid profiles of different tissues were determined. The main objective was to follow the level of EPA in red blood cell and plasma lipids. The main comparison evaluated was the difference in EPA level between the group receiving EPA-containing sn-1(3) MAG in combination with XENICAL® (ORLISTAT) and the positive control group (fish oil+XENICAL® (ORLISTAT)). […] This comparison corroborates the validity of the model.

[2] = clinical study: sn-1(3) MAG versus fish oil (TAG) in delivering EPA under lipid maldigestion induced by XENICAL; assay type: in vivo, human
Protocol: This clinical study compared the efficacy of sn-1(3) MAG and fish oil (TAG) in delivering EPA in humans under lipid maldigestion conditions induced by XENICAL® (ORLISTAT). The comparison was tested in volunteers having a BMI of 37-40 kg/m^2 and treated with XENICAL® (ORLISTAT) to induce lipid maldigestion or not treated with XENICAL® (ORLISTAT). The primary objective was to assess accretion of EPA in erythrocytes over 21 days when consumed as fish oil (TAG) or sn-1(3) MAG. The secondary objectives were to assess accretion of EPA in plasma over 21 days and also to assess the pharmacokinetics of EPA after an acute dose either in the form of sn-1(3) MAG or TAG (AUC in chylomicrons over 10 hours postprandial).

| SMILES | EPA incorporation in red blood cells ([1]; day 7, fish oil with XENICAL compared with fish oil without XENICAL) | incorporation of LC-PUFAs in tissue ([1]; conditions of lipid maldigestion or malabsorption) | level of EPA incorporated in red blood cells ([1]; compared with fish oil in combination with XENICAL, all P values lower than 0.05) | level of EPA incorporated in red blood cells ([1]; compared with the fish oil group without XENICAL) | chronic effect: accretion of EPA in erythrocytes after 21 days ([2]; humans, with XENICAL, in comparison to fish oil and XENICAL, p=0.0001, FIG. 5) | chronic effect: accretion of EPA in plasma after 21 days ([2]; humans, with XENICAL, relative to fish oil and XENICAL, p=0.0003, FIG. 6) | carrier for EPA ([2]; obese subjects treated with XENICAL, compared with fish oil (TAG)) |
| --- | --- | --- | --- | --- | --- | --- | --- |
| CCCCCCCCCCC[C@@H](C[C@@H]1OC(=O)[C@H]1CCCCCC)OC(=O)[C@H](CC(C)C)NC=O [XENICAL® (ORLISTAT), tetrahydrolipstatin, reference compound] | decreases EPA incorporation in red blood cells | – | – | – | – | – | – |
| CC/C=C\C/C=C\C/C=C\C/C=C\C/C=C\CCCC(=O)OCC(O)CO (stereo not shown) [sn-1(3) MAG, sn-1(3)-monoeicosapentaenoylglycerol] | – | improved | statistically higher | even higher than the fish oil group | statistically significant | statistically significant | better carrier for EPA than fish oil (TAG) |
